According to patent US20230210999A1, “TARGETED PROTEASE DEGRADATION (TED) PLATFORM” (EUBULUS BIOTHERAPEUTICS INC., priority 2020, published 2023):

How the values were obtained:
THP-1 cells = assay: Cell proliferation experiment, THP-1; type: cell-based; details: Homo sapiens, 72 h, read-out: Inhibitory activity IC50 of tested compounds on THP-1 cells
Procedure: (§1) Reagents: RPMI-1640 medium, McCoy's 5A medium, IMDM medium, MEM medium, L-15 medium, fetal bovine serum. Penicillin-Streptomycin double antibody, trypsin, etc., 2-mercaptoethanol, NEAA, pyruvate, etc.
(§2) The cells were cultured in conventional ways, and the cells should be passed at least 2 generations before plating. Cells at the logarithmic growth phase were collected, prepared into single cell suspensions and counted. The concentration of cells was adjusted to the desired concentration, and cells were inoculated into a 96-well cell culture plate at 100 μl per well. 100 μL of complete medium of the test compound were added to each well, set up 2 duplicate wells for each concentration, and diluted with a 5-fold gradient, and continued to culture for 72 h. All cells were subjected to IC50 test for corresponding samples. The experimental results are shown in Test Example 4.
(§3) The fluorescence intensity of each well was detected using the Alarm blue method, and IC50 was calculated.
(§4) IC50 was calculated according to the following formula:
(§5) Y=Max+(Min−Max)/[1+(X/IC50)×Slope]
(§6) wherein Min, Max and Slope represent the minimum, maximum and slope respectively.

MV4;11 cells = assay: Cell proliferation experiment (Alamar blue, 72 h), MV4;11; type: cell-based, human; details: Homo sapiens, MV4-11, 72 h, MV4;11 cells, 72 h; read-out: Inhibitory activity IC50 of tested compounds on MV4;11 cells
Procedure, shortened: (§7)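 IC50 values derive from a four-parameter logistic fit of Alamar blue fluorescence. Cells in logarithmic growth, plated in 96-well format, are treated for 72 h with compound diluted 5-fold serially, two wells per concentration.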

HL-60 cells = assay: Cell proliferation experiment, HL-60; type: cell-based; details: Homo sapiens, 72 h, read-out: Inhibitory activity IC50 of tested compounds on HL-60 cells
Procedure: as §1, §2, §3, §4, §5, §6

NCIH82 cells = assay: Cell proliferation experiment, NCI-H82; type: cell-based, human; details: Homo sapiens, NCI-H82, 72 h, NCIH82 cells, 72 h; read-out: Inhibitory activity IC50 of tested compounds on NCIH82 cells
Procedure, shortened: as §7

Daudi cells = assay: Cell proliferation experiment, Daudi; type: cell-based, human; details: Homo sapiens, Daudi, 72 h, Daudi cells, 72 h; read-out: Inhibitory activity IC50 of tested compounds on Daudi cells
Procedure, shortened: as §7

U-87MG cells = assay: Cell proliferation experiment, U-87MG; type: cell-based; details: Homo sapiens; U-87MG cells, 72 h; read-out: Inhibitory activity IC50 of tested compounds on U-87MG cells
Procedure, shortened: as §7

HT-29 cells = assay: Cell proliferation experiment, HT-29; type: cell-based; details: Homo sapiens; HT-29 cells, 72 h; read-out: Inhibitory activity IC50 of tested compounds on HT-29 cells
Procedure, shortened: as §7

MDA-MB-231 cells = assay: Cell proliferation experiment, MDA-MB-231; type: cell-based, human; details: Homo sapiens, MDA-MB-231, 72 h, MDA-MB-231 cells, 72 h; read-out: Inhibitory activity IC50 of tested compounds on MDA-MB-231 cells
Procedure, shortened: as §7

MOL4-4 cells = assay: Cell proliferation experiment, MOL4-4; type: cell-based; details: Homo sapiens, 72 h, read-out: Inhibitory activity IC50 of tested compounds on MOL4-4 cells
Procedure: as §1, §2, §3, §4, §5, §6

Hela cells = assay: Cell proliferation experiment, Hela; type: cell-based; details: Homo sapiens, 72 h, read-out: Inhibitory activity IC50 of tested compounds on Hela cells
Procedure: as §1, §2, §3, §4, §5, §6

HUVEC cells = assay: Cell proliferation experiment, HUVEC; type: cell-based; details: Homo sapiens, 72 h, read-out: Inhibitory activity IC50 of tested compounds on HUVEC cells
Procedure: as §1, §2, §3, §4, §5, §6

| IC50 (THP-1 cells) [nM] | IC50 (MV4;11 cells) [nM] | IC50 (HL-60 cells) [nM] | IC50 (NCIH82 cells) [nM] | IC50 (Daudi cells) [nM] | IC50 (U-87MG cells) [nM] | IC50 (HT-29 cells) [nM] | IC50 (MDA-MB-231 cells) [nM] | IC50 (Hela cells) [nM] | SMILES | IC50 (MOL4-4 cells) [nM] | IC50 (HUVEC cells) [nM] |
| --- | --- | --- | --- | --- | --- | --- | --- | --- | --- | --- | --- |
| ≤ 1000 | ≤ 100 | ≤ 1000 | ≤ 1000 | 100 to 1000 | 100 to 500 | 300 to 1000 |  |  | CC[C@@H]1C(=O)N(C)c2cnc(Nc3ccc(C(=O)NC4CCN(CCOCCNCCC#Cc5cccc6c5CN(C5CCC(=O)NC5=O)C6=O)CC4)cc3OC)nc2N1C1CCCC1 (stereo partly drawn) [Compound 874] |  |  |
| ≤ 1000 | ≤ 100 | ≤ 1000 | ≤ 1000 | ≤ 100 | ≤ 100 | 300 to 1000 | ≤ 500 | ≤ 1000 | CC[C@@H]1C(=O)N(C)c2cnc(Nc3ccc(C(=O)NCCCOCCOCCCN(C)CCC#Cc4cccc5c4CN(C4CCC(=O)NC4=O)C5=O)cc3OC)nc2N1C1CCCC1 (stereo partly drawn) [Compound 883] | ≤ 100 | ≤ 1000 |
| ≤ 1000 | ≤ 100 | ≤ 1000 | ≤ 1000 | ≤ 100 | ≤ 100 | 300 to 1000 | ≤ 500 | ≤ 1000 | CC[C@@H]1C(=O)N(C)c2cnc(Nc3ccc(C(=O)NCCCN(C)CCOCCCC#Cc4cccc5c4CN(C4CCC(=O)NC4=O)C5=O)cc3OC)nc2N1C1CCCC1 (stereo partly drawn) [Compound 884] | ≤ 100 | ≤ 1000 |
| ≤ 1000 | ≤ 100 | ≤ 1000 | ≤ 1000 | ≤ 100 | 100 to 500 | 300 to 1000 | ≤ 500 | ≤ 1000 | CC[C@@H]1C(=O)N(C)c2cnc(Nc3ccc(C(=O)NCCCOCCNCCC#Cc4cccc5c4CN(C4CCC(=O)NC4=O)C5=O)cc3OC)nc2N1C1CCCC1 (stereo partly drawn) [Compound 888] | ≤ 100 | ≤ 1000 |
| ≤ 1000 | ≤ 100 | ≤ 1000 | ≤ 1000 | ≤ 100 | ≤ 100 | ≤ 300 | ≤ 500 | ≤ 1000 | CC[C@@H]1C(=O)N(C)c2cnc(Nc3ccc(C(=O)NC4CCC(N5CCN(CCC#Cc6cccc7c6CN(C6CCC(=O)NC6=O)C7=O)CC5)CC4)cc3OC)nc2N1C1CCCC1 (stereo partly drawn) [Compound 889] | ≤ 100 | ≤ 1000 |
|  | ≤ 100 | ≤ 1000 | ≤ 1000 | ≤ 100 | 100 to 500 | 300 to 1000 | ≤ 500 |  | CC[C@@H]1C(=O)N(C)c2cnc(Nc3ccc(C(=O)NCCCOCCOCCNCCC#Cc4cccc5c4CN(C4CCC(=O)NC4=O)C5=O)cc3OC)nc2N1C1CCCC1 (stereo partly drawn) [Compound 890] |  | ≤ 1000 |
|  | 100 to 1000 | ≤ 1000 | ≤ 1000 |  | 100 to 500 | 300 to 1000 |  |  | CC[C@@H]1C(=O)N(C)c2cnc(Nc3ccc(C(=O)NCCC#Cc4cccc5c4CN(C4CCC(=O)NC4=O)C5=O)cc3OC)nc2N1C1CCCC1 (stereo partly drawn) [Compound 891] |  |  |
|  | ≤ 100 | ≤ 1000 | ≤ 1000 | 100 to 1000 | ≤ 100 | 300 to 1000 | ≤ 500 | ≤ 1000 | CC[C@@H]1C(=O)N(C)c2cnc(Nc3ccc(C(=O)NCCCOCCCOCCNCCC#Cc4cccc5c4CN(C4CCC(=O)NC4=O)C5=O)cc3OC)nc2N1C1CCCC1 (stereo partly drawn) [Compound 892] |  | ≤ 1000 |
|  | ≤ 100 | ≤ 1000 | ≤ 1000 | ≤ 100 | ≤ 100 | ≤ 300 | ≤ 500 | ≤ 1000 | CC[C@@H]1C(=O)N(C)c2cnc(Nc3ccc(C(=O)NCCCOCCNCCOCCC#Cc4cccc5c4CN(C4CCC(=O)NC4=O)C5=O)cc3OC)nc2N1C1CCCC1 (stereo partly drawn) [Compound 893] |  | ≤ 1000 |
|  | ≤ 100 | ≤ 1000 | ≤ 1000 | 100 to 1000 | 100 to 500 | 300 to 1000 |  |  | CC[C@@H]1C(=O)N(C)c2cnc(Nc3ccc(C(=O)NC4CCN(CCCOCCNCCC#Cc5cccc6c5CN(C5CCC(=O)NC5=O)C6=O)CC4)cc3OC)nc2N1C1CCCC1 (stereo partly drawn) [Compound 895] |  |  |
|  | ≤ 100 | ≤ 1000 | ≤ 1000 | 100 to 1000 | 100 to 500 | ≤ 300 |  |  | CC[C@@H]1C(=O)N(C)c2cnc(Nc3ccc(C(=O)NC4CCN(CCCOCCN(C)CCC#Cc5cccc6c5CN(C5CCC(=O)NC5=O)C6=O)CC4)cc3OC)nc2N1C1CCCC1 (stereo partly drawn) [Compound 897] |  |  |
|  | ≤ 100 | ≤ 1000 | ≤ 1000 | ≤ 100 | ≤ 100 | ≤ 300 |  |  | CC[C@@H]1C(=O)N(C)c2cnc(Nc3ccc(C(=O)NC4CCN(CCNCCCOCCCC#Cc5cccc6c5CN(C5CCC(=O)NC5=O)C6=O)CC4)cc3OC)nc2N1C1CCCC1 (stereo partly drawn) [Compound 899] |  |  |
|  | ≤ 100 | ≤ 1000 | ≤ 1000 | ≤ 100 | ≤ 100 | ≤ 300 |  |  | CC[C@@H]1C(=O)N(C)c2cnc(Nc3ccc(C(=O)NC4CCN(CCN(C)CCCOCCCC#Cc5cccc6c5CN(C5CCC(=O)NC5=O)C6=O)CC4)cc3OC)nc2N1C1CCCC1 (stereo partly drawn) [Compound 900] |  |  |
|  | ≤ 100 | ≤ 1000 | ≤ 1000 |  | 100 to 500 | 300 to 1000 |  |  | CC[C@@H]1C(=O)N(C)c2cnc(Nc3ccc(C(=O)NC4CCN(CCCNCCCOCCCC#Cc5cccc6c5CN(C5CCC(=O)NC5=O)C6=O)CC4)cc3OC)nc2N1C1CCCC1 (stereo partly drawn) [Compound 901] |  |  |
|  |  | ≤ 1000 | ≤ 1000 | ≤ 100 | ≤ 100 | ≤ 300 |  |  | CC[C@@H]1C(=O)N(C)c2cnc(Nc3ccc(C(=O)NC4CCN(CCOCCCC#Cc5cccc6c5CN(C5CCC(=O)NC5=O)C6=O)CC4)cc3OC)nc2N1C1CCCC1 (stereo partly drawn) [Compound 902] |  |  |
|  | ≤ 100 | ≤ 1000 | ≤ 1000 | ≤ 100 | ≤ 100 | 300 to 1000 |  |  | CC[C@@H]1C(=O)N(C)c2cnc(Nc3ccc(C(=O)NC4CCN(CCNCCCOCCC#Cc5cccc6c5CN(C5CCC(=O)NC5=O)C6=O)CC4)cc3OC)nc2N1C1CCCC1 (stereo partly drawn) [Compound 903] |  |  |
|  | ≤ 100 | ≤ 1000 | > 1000 |  | 500 to 1000 | > 1000 |  |  | CC[C@@H]1C(=O)N(C)c2cnc(Nc3ccc(C(=O)NC4CCN(CCCNCCCOCCC#Cc5cccc6c5CN(C5CCC(=O)NC5=O)C6=O)CC4)cc3OC)nc2N1C1CCCC1 (stereo partly drawn) [Compound 904] |  |  |
|  | ≤ 100 | ≤ 1000 | > 1000 |  | 100 to 500 | > 1000 |  |  | CC[C@@H]1C(=O)N(C)c2cnc(Nc3ccc(C(=O)NC4CCN(CCCNCCOCCC#Cc5cccc6c5CN(C5CCC(=O)NC5=O)C6=O)CC4)cc3OC)nc2N1C1CCCC1 (stereo partly drawn) [Compound 905] |  |  |
|  | ≤ 100 |  | ≤ 1000 | ≤ 100 | ≤ 100 | ≤ 300 |  |  | CC[C@@H]1C(=O)N(C)c2cnc(Nc3ccc(C(=O)NC4CCN(CCN(C)CCCOCCC#Cc5cccc6c5CN(C5CCC(=O)NC5=O)C6=O)CC4)cc3OC)nc2N1C1CCCC1 (stereo partly drawn) [Compound 932] |  | ≤ 1000 |
|  | ≤ 100 |  | ≤ 1000 | 100 to 1000 | 100 to 500 | 300 to 1000 |  |  | CC[C@@H]1C(=O)N(C)c2cnc(Nc3ccc(C(=O)NC4CCC(N5CCN(CCCNCCC#Cc6cccc7c6CN(C6CCC(=O)NC6=O)C7=O)CC5)CC4)cc3OC)nc2N1C1CCCC1 (stereo partly drawn) [Compound 933] |  | ≤ 1000 |
